Assay results published in patent US11878015B2, “Piperidine-substituted Mnk inhibitors and methods related thereto” (eFFECTOR Therapeutics Inc., priority 2017, dated 2024).
Like-named read-outs stand apart in the source and are kept apart here.

Tests used:
Phosphorylated eIF4E = assay: peIF4E signaling cellular assay (CisBio peIF4E HTRF); type: cell-based; settings: 2 hrs incubation at 37° C., 12-point curve 20 μM to 0.1 nM; read-out: pEI4IE signaling activity
Procedure: Phosphorylated eIF4E is assayed using the CisBio peIF4E HTRF® assay kit (CisBio, catalogue No. 64EF4PEG). Cells are plated in 96-well tissue-culture treated plate in appropriate growth medium (90 μL). Compounds (10×) are diluted using 3-fold serial dilutions in cell culture medium and added to cells. Plates are incubated for 2 hrs at 37° C. The cell supernatant is carefully removed either by aspirating supernatant or by flicking the plate. Immediately 50 μL of supplemented lysis buffer (1×) is added and incubated for at least 30 minutes at room temperature under shaking. After homogenization by pipeting up and down, 16 μL of cell lysate is transferred from the 96-well cell-culture plate to a 384-well small volume white plate. 4 μL of premixed antibody solutions (vol/vol) is prepared in the detection buffer and added. The plate is covered with a plate sealer and incubated overnight at room temperature. The fluorescence emissions at two different wavelengths are read (665 nm and 620 nm) on a Wallac Victor2. Emission ratios are converted into percent inhibitions and imported into GraphPad Prism software. […] IC50 values are determined using a nonlinear regression model available in GraphPad Prism 5.
To this end, IC50 values of less than 0.001 μM are labelled as “+++”, from 0.001 to 0.01 μM are labelled as “++”, and greater than 0.01 μM are labelled as “+” (NA means “not available”).

PD-1 = PD-1 (CD279) expression on PHA/PMA-activated Jurkat T cells, flow cytometry; type: cell-based; settings: Homo sapiens, percentage of inhibition of PD-1 positive cells at 10 μM, 48 hours
Procedure: To examine the effect of MNK inhibitors on PD-1 expression, Jurkat cells (Clone E6.1, ATCC, transformed T cells) were used, which express PD-1 when activated through T cell receptor (TCR) signaling. Briefly, Jurkat cells were grown in 1×RPMI with 1×Pen/Strep, and 10% FBS, then about 3×10^6 Jurkat cells were activated in presence of 1 μg/mL PHA (Sigma) and 50 ng/mL PMA (Sigma). Test Cells were treated simultaneously with various concentrations of an MNK inhibitor (0, 0.01, 0.1, 1, 3 and 10 μM). After 48 hours, culture supernatants were harvested and examined via sandwich ELISA for the presence of IL-2 using human IL-2 ELISA DuoSet (R&D Systems, Minneapolis, Minn.). The level of PD-1 on Jurkat cells was examined by incubating with human FcR block, then contacted with allophycocyanin (APC) conjugated anti-PD-1 antibody (5 μl per 100 μl volume of test, Biolegend, San Diego, CA) for 25 minutes at 4° C., without washing the cells, fixable dead cell stain (1:10,000; BD Biosciences, San Jose, CA) was added and incubated further for 10 minutes at 4° C. Cells were washed two times with flow buffer, and finally cells were fixed with fixation buffer for 15 minutes at 4° C. After fixation, cells were washed twice with flow buffer and re-suspended in flow buffer and assessed for fluorescence using BD Accuri C6 flow cytometer. Data were analyzed using the C6 cytometer software (BD Biosciences, San Jose, CA) or Attune Nxt Cytometer (Invitrogen, Carlsbad, CA).
Activation of Jurkat T cells with PHA and PMA induced the expression of PD-1 on the cell surface of about 25-30% of the stimulated Jurkat cells as compared to uninduced cells (Unstim) and induced a 1,000-fold increase in IL-2 cytokine production, respectively. […] Lastly, MNK inhibition by various different MNK inhibitors had no effect on cell viability. […] To this end, percentage of inhibition of PD-1 positive cells (10 μM) of more than 50% are labelled as “+++”, from 10% to 50% are labelled as “++”, and less than 10% are labelled as “+” (NA means “not available”).

[1] = High throughput thermodynamic solubility procedure; type: physicochemical; settings: for solubility in fasted state simulated gastric fluid (FaSSGF), in words: pH value of 1.6; for solubility at 18 h: thermodynamic from solid, 18 hours incubation, theoretical maximum 10 mM
Procedure: In a 96-well plate, 10 mM DMSO stocks (50-100 uL) of each compound were dried under heated nitrogen flow using a SPE-96 plate dryer (upper flow rate=50 L/min, temperature=60° C., lower flow rate=20 L/min, temperature=80° C.). […] Compounds prepared as the free base were assessed in conditions with and without one equivalent of TFA added. The theoretical maximum concentrations of the aqueous solutions were 10 mM. Each well was capped and incubated for a period of 18 hours at room temperature or 37° C. Mixing of the solutions during the incubation period was performed by either shaking the plate at 750 rpm or adding StirStix (stainless steel capillaries) and agitating the mixture using a rotary magnetic tumble stirrer. After the incubation period, aliquots from each well were filtered. Solubility of all samples were quantified following comparison to standards of known concentration by HPLC-UV.

[2] = Fasted-State Simulated Intestinal Fluid (FaSSIF), pH 6.5, fassif, Fasted-State Simulated Intestinal Fluid, read-out: Aqueous Solubility FaSSIF (pH 6.5)
[3] = deionized water, read-out: Aqueous Solubility DI H2O

Structure (SMILES) | IC50 (Phosphorylated eIF4E) [nM] | solubility in fasted state simulated gastric fluid (FaSSGF), in words [1] | solubility at 18 h [1, 2] | solubility at 18 h [1, 3] | inhibition at 10 µM (PD-1) [%]
Cc1cc(Nc2ncnc(N)c2Cl)c(=O)n2c1C(=O)NC21CCN(CCF)CC1 [Compound 3CC] | 1 to 10 |  | 40 µM | 770 µM | 10 to 50
Cc1cc(Nc2ncnc(N)c2Cl)c(=O)n2c1C(=O)NC21CNCCC1(C)C (centres unmarked) [Compound 3S] | 1 to 10 |  | 600 µM | 4200 µM | > 50
Cc1cc(Nc2ncnc(N)c2Cl)c(=O)n2c1C(=O)N[C@]21CCCNC1 [Compound 3K] | > 10 | excellent solubility | 158 µg/mL | 1530 µg/mL | > 50
Cc1cc(Nc2ncnc(N)c2Cl)c(=O)n2c1C(=O)NC21CCN(C)CC1(C)C (centres unmarked) [Compound 3DD] | < 1 |  | 130 µM | 2100 µM | > 50

More lines, main results first:

IC50 (Phosphorylated eIF4E) [nM] | solubility in fasted state simulated gastric fluid (FaSSGF), in words [1] | solubility at 18 h [1, 2] | solubility at 18 h [1, 3] | Structure (SMILES) | inhibition at 10 µM (PD-1) [%]
1 to 10 | excellent solubility | 88 µg/mL | > 1850 µg/mL | Cc1cc(Nc2ncnc(N)c2C)c(=O)n2c1C(=O)N[C@@]21CCCN(C)C1 (stereo in doubt) [Compound 1Fb, (S)-6-((6-amino-5-methylpyrimidin-4-yl)amino)-1′,8-dimethyl-2H-spiro[imidazo[1,5-a]pyridine-3,3′-piperidine]-1,5-dione] | 10 to 50
> 10 |  | 500 µM | 10000 µM | Cc1cc(Nc2ncnc(N)c2C)c(=O)n2c1C(=O)NC21CNCCC1(C)C (centres unmarked) [Compound 3T] | 10 to 50
